Results as given in article PMC9732823, “Discovery of Dual Aβ/Tau Inhibitors and Evaluation of Their Therapeutic Effect on a Drosophila Model of Alzheimer’s Disease” (ACS Chemical Neuroscience, 2022).

Columns and labels:
[1] = biological target: T1, Tau protein (Homo sapiens, UniProt P10636); assay: Inhibition of Tau aggregation in intact E. coli cells overexpressing Tau (ThS fluorescence); type: cell-based, Escherichia coli
T1 construct: expressed in transfected cells; host or cells: Escherichia coli BL21 (DE3) with pTARA and pRKT42
Summary of the method: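 E. coli BL21(DE3) expressing four-repeat Tau, arabinose-induced in M9 with 25 μM ThS, grown overnight at 37 °C with compound at 10 μM final. ThS emission at 485 nm (excitation 440 nm) normalized to ABS600; 100% = induced DMSO control, 0% = noninduced cells.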

[2] = biological target: T2, preaggregated Aβ42 (Homo sapiens, UniProt P05067); assay: Optical properties of 23 in the presence of aggregated Aβ42 (fluorescence emission spectra); type: binding; details: 23 0.375 μM, Aβ42 0.75 μM, Gly-NaOH buffer 50 mM pH 8.5, λexc = 374 nm
T2 construct: (HFIP)-pretreated Aβ42 samples (Bachem AG, Switzerland); purchased Bachem AG, Switzerland
Excerpt: The interaction of a fluorescent compound with three-dimensionally organized Aβ42 fibrils may lead to a change in its fluorescent properties as a consequence of either a reduction of flexibility due to multiple-interaction points and/or of a change in compound–solvent interactions because of the insertion of the compound within fibril helices. […] This assay setup allows the use of a slightly higher amount of DMSO, which is sufficient to grant compound solubility, because addition of the tested compound to Aβ42 samples is performed when fibrillization has already occurred.
Thus, we recorded the emission spectra of compound 23 in the absence and presence of preaggregated Aβ42.
As reported in a previously published protocol,[42] 1,1,1,3,3,3,-hexafluoro-2-propanol (HFIP)-pretreated Aβ42 samples (Bachem AG, Switzerland) were solubilized with a CH3CN/0.3 mM Na2CO3/250 mM NaOH (48.4:48.4:3.2) mixture to obtain a 500 μM solution. […]
A 1.5 mM stock solution of 23 in methanol was prepared and diluted in 50 mM glycine–NaOH buffer (pH 8.5) to a final concentration of 0.375 μM. Excitation and emission fluorescence spectra in the absence and in the presence of preaggregated Aβ42 (0.75 μM) were recorded using the following instrument setup: λexc = 374 nm, emission range = 400–600 nm; λem = 473 nm; excitation range = 250–460 nm; bandwidth (Ex) = 5 nm; bandwidth (Em) = 5 nm; scanning speed = […].

T1 sequence (P10636 1-441 isoform P10636-8): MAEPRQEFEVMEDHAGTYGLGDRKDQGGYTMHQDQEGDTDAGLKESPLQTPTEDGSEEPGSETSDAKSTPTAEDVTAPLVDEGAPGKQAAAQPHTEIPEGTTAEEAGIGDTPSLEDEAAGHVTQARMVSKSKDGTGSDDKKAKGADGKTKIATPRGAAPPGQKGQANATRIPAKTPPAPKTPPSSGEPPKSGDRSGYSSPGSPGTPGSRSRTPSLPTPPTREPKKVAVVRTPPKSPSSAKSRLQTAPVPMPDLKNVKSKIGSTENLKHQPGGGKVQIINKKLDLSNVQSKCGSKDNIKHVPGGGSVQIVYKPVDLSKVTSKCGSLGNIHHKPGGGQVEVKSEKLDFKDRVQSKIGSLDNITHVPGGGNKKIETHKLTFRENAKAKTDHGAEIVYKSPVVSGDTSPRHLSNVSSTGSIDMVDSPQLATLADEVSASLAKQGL
T2 sequence (P05067 672-713 limits assumed): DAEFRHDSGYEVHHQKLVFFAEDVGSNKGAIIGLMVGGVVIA

CN(C)CCN1C(=O)S/C(=C\c2ccc3c(c2)C(C)(C)c2cc(/C=C4\SC(=O)N(CCN(C)C)C4=O)ccc2-3)C1=O [Compound 23, (5Z,5′Z)-5,5′-((9,9-Dimethyl-9H-fluorene-2,7-diyl)bis(methanylylidene))bis(3-(2-(dimethylamino)ethyl)thiazolidine-2,4-dione)]
% inhibition Tau aggregation @ 10 μM ([1]; intact E. coli cells, compound 10 μM, mean ± SEM of four independent experiments, 10 µM): 41.9 ± 3.9% | inhibition at 10 µM ([1]; read-out: % inhibition Tau aggregation @ 10 μM, intact E. coli cells, compound 10 μM, mean ± SEM of four independent experiments): > 40% | change of fluorescence emission upon binding to preaggregated Aβ42 [2]: strong hyperchromic effect upon binding
